Here are results for two substances from patent publication US7745411B2, “Methods for promoting erythropoiesis” (University of Southern California, priority 1998, dated 2010).

The experiment is described as follows: Unspecified test of effectiveness of AII fragments. The note with it: test not specified.

Entries after “also recorded” stand apart in the source; their conditions may differ.

For the substance His-Pro-Phe (HPF) [AII(6-8)], the “effectiveness (tested, effective or not)” value is given as “not to be effective”. Take “Tyr-Ile-His-Pro-Phe (YIHPF; printed: Tyr-Ile-His-Pro-Phe) [AII(4-8)]”: the “effectiveness (tested, effective or not)” value is reported as “not to be effective; also recorded: ineffective in repeated tests”.
